Test: xn = mol fraction of the nth substance listed
Conditions: 101 kPa, Liquid, Vibrating tube method

OCC(O)CO [glycerol] + O
Conditions | mass density [kg/m3]
274.15 K, x1 = 0.00209 | 1002.52
274.15 K, x1 = 0.00439 | 1005.4
274.15 K, x1 = 0.0051 | 1006.27
274.15 K, x1 = 0.00657 | 1008.08
274.15 K, x1 = 0.01072 | 1013.09
274.15 K, x1 = 0.01633 | 1019.67
275.15 K, x1 = 0.00209 | 1002.55
275.15 K, x1 = 0.00439 | 1005.42
275.15 K, x1 = 0.0051 | 1006.29
275.15 K, x1 = 0.00657 | 1008.09
275.15 K, x1 = 0.01072 | 1013.08
275.15 K, x1 = 0.01633 | 1019.63
276.15 K, x1 = 0.00209 | 1002.56
276.15 K, x1 = 0.00439 | 1005.42
276.15 K, x1 = 0.0051 | 1006.29
276.15 K, x1 = 0.00657 | 1008.08
276.15 K, x1 = 0.01072 | 1013.06
276.15 K, x1 = 0.01633 | 1019.58
277.15 K, x1 = 0.00209 | 1002.56
277.15 K, x1 = 0.00439 | 1005.41
277.15 K, x1 = 0.0051 | 1006.27
277.15 K, x1 = 0.00657 | 1008.06
277.15 K, x1 = 0.01072 | 1013.02
277.15 K, x1 = 0.01633 | 1019.51
278.15 K, x1 = 0.00209 | 1002.54
278.15 K, x1 = 0.00439 | 1005.38
278.15 K, x1 = 0.0051 | 1006.24
278.15 K, x1 = 0.00657 | 1008.02
278.15 K, x1 = 0.01072 | 1012.95
278.15 K, x1 = 0.01633 | 1019.43
278.15 K, x1 = 0.03504 | 1039.54
278.15 K, x1 = 0.05086 | 1054.94
278.15 K, x1 = 0.06775 | 1069.92
278.15 K, x1 = 0.1127 | 1103.61
278.15 K, x1 = 0.1559 | 1129.3
278.15 K, x1 = 0.206 | 1153.22
278.15 K, x1 = 0.256 | 1172.3
278.15 K, x1 = 0.3311 | 1194.33
278.15 K, x1 = 0.4012 | 1210
278.15 K, x1 = 0.4907 | 1225.46
278.15 K, x1 = 0.5828 | 1237.72
278.15 K, x1 = 0.6857 | 1248.63
278.15 K, x1 = 0.7494 | 1254.28
278.15 K, x1 = 0.8101 | 1259.12
278.15 K, x1 = 0.8528 | 1262.2
278.15 K, x1 = 0.882 | 1264.21
278.15 K, x1 = 0.9143 | 1266.2
278.15 K, x1 = 0.9408 | 1267.71
278.15 K, x1 = 0.9578 | 1268.67
278.15 K, x1 = 0.9792 | 1269.86
278.15 K, x1 = 0.9895 | 1270.39
278.15 K, x1 = 1 | 1270.87
279.15 K, x1 = 0.00209 | 1002.51
279.15 K, x1 = 0.00439 | 1005.34
279.15 K, x1 = 0.0051 | 1006.19
279.15 K, x1 = 0.00657 | 1007.97
279.15 K, x1 = 0.01072 | 1012.88
279.15 K, x1 = 0.01633 | 1019.34
280.15 K, x1 = 0.00209 | 1002.46
280.15 K, x1 = 0.00439 | 1005.28
280.15 K, x1 = 0.0051 | 1006.13
280.15 K, x1 = 0.00657 | 1007.91
280.15 K, x1 = 0.01072 | 1012.8
280.15 K, x1 = 0.01633 | 1019.23
281.15 K, x1 = 0.00209 | 1002.4
281.15 K, x1 = 0.00439 | 1005.21
281.15 K, x1 = 0.0051 | 1006.06
281.15 K, x1 = 0.00657 | 1007.82
281.15 K, x1 = 0.01072 | 1012.7
281.15 K, x1 = 0.01633 | 1019.12
282.15 K, x1 = 0.00209 | 1002.33
282.15 K, x1 = 0.00439 | 1005.13
282.15 K, x1 = 0.0051 | 1005.97
282.15 K, x1 = 0.00657 | 1007.73
282.15 K, x1 = 0.01072 | 1012.6
282.15 K, x1 = 0.01633 | 1018.99
283.15 K, x1 = 0.00209 | 1002.24
283.15 K, x1 = 0.00439 | 1005.03
283.15 K, x1 = 0.0051 | 1005.87
283.15 K, x1 = 0.00657 | 1007.62
283.15 K, x1 = 0.01072 | 1012.47
283.15 K, x1 = 0.01633 | 1018.85
288.15 K, x1 = 0.00209 | 1001.6
288.15 K, x1 = 0.00439 | 1004.35
288.15 K, x1 = 0.0051 | 1005.18
288.15 K, x1 = 0.00657 | 1006.91
288.15 K, x1 = 0.01072 | 1011.69
288.15 K, x1 = 0.01633 | 1017.97
288.15 K, x1 = 0.03504 | 1037.45
288.15 K, x1 = 0.05086 | 1052.38
288.15 K, x1 = 0.06775 | 1066.9
288.15 K, x1 = 0.1127 | 1099.65
288.15 K, x1 = 0.1559 | 1124.77
288.15 K, x1 = 0.206 | 1148.15
288.15 K, x1 = 0.256 | 1166.85
288.15 K, x1 = 0.3311 | 1188.67
288.15 K, x1 = 0.4012 | 1204.31
288.15 K, x1 = 0.4907 | 1219.67
288.15 K, x1 = 0.5828 | 1231.79
288.15 K, x1 = 0.6857 | 1242.54
288.15 K, x1 = 0.7494 | 1248.04
288.15 K, x1 = 0.8101 | 1252.82
288.15 K, x1 = 0.8528 | 1255.81
288.15 K, x1 = 0.882 | 1257.79
288.15 K, x1 = 0.9143 | 1259.78
288.15 K, x1 = 0.9408 | 1261.27
288.15 K, x1 = 0.9578 | 1262.21
288.15 K, x1 = 0.9792 | 1263.39
288.15 K, x1 = 0.9895 | 1263.91
288.15 K, x1 = 1 | 1264.4
293.15 K, x1 = 0.00209 | 1000.68
293.15 K, x1 = 0.00439 | 1003.39
293.15 K, x1 = 0.0051 | 1004.21
293.15 K, x1 = 0.00657 | 1005.92
293.15 K, x1 = 0.01072 | 1010.64
293.15 K, x1 = 0.01633 | 1016.84
293.15 K, x1 = 0.03504 | 1036.06
293.15 K, x1 = 0.05086 | 1050.82
293.15 K, x1 = 0.06775 | 1065.15
293.15 K, x1 = 0.1127 | 1097.5
293.15 K, x1 = 0.1559 | 1122.35
293.15 K, x1 = 0.206 | 1145.51
293.15 K, x1 = 0.256 | 1164.09
293.15 K, x1 = 0.3311 | 1185.75
293.15 K, x1 = 0.4012 | 1201.28
293.15 K, x1 = 0.4907 | 1216.63
293.15 K, x1 = 0.5828 | 1228.62
293.15 K, x1 = 0.6857 | 1239.29
293.15 K, x1 = 0.7494 | 1244.78
293.15 K, x1 = 0.8101 | 1249.51
293.15 K, x1 = 0.8528 | 1252.47
293.15 K, x1 = 0.882 | 1254.43
293.15 K, x1 = 0.9143 | 1256.38
293.15 K, x1 = 0.9408 | 1257.87
293.15 K, x1 = 0.9578 | 1258.81
293.15 K, x1 = 0.9792 | 1259.97
293.15 K, x1 = 0.9895 | 1260.49
293.15 K, x1 = 1 | 1260.99
298.15 K, x1 = 0.00209 | 999.49
